In patent publication US20040143865A1, “Transgenic zebrafish models for angiogenesis” (priority 2002, published 2004):
Entries after “also recorded” stand apart in the source; their conditions may differ.

Key:
[1] = patients treated in clinical trials; cited from earlier work
[2] = system: vascular endothelial cell; conditions: in vitro; cited from earlier work
mouse xenograft models = mouse xenograft models (Shaheen et al., 1999); cited from earlier work
[3] = system: TG(VEGFR2:G-RCFP) transgenic zebrafish embryos; experiment: Angiogenesis inhibitor assay in TG(VEGFR2:G-RCFP) transgenic zebrafish embryos with fluorescent blood vessels; conditions: for Intersegmental vessel formation: treated overnight from 13-somite stage (approximately 15 hpf); for Phenotypic response: cell wrapped over the compound's rows, in full: Dorsal aorta, caudal veins, present. Intersegmental vessels absent. Cranial vessels reduced in number.; for Concentrations of the compounds required to see these effects (complete block of intersegmental vessel formation) / Blood vessels in the head that form by angiogenesis: overnight application; for Blood vessels in the head that form by angiogenesis: 10 μM for SU5416 and 15 μM for SU6668; for Effect on pre-existing blood vessels: six-hour treatment at 24 hpf, well-established primary vasculature not affected; for Migration pattern of VEGFR2 expressing cells toward the midline: treated embryos at the 18 somite stage, versus control
zebrafish blood vessels = conditions: Chan et al., 2002; cited from earlier work
[4] = 10 μM, stage at treatment 6 hpf, time treated 24 h
[5] = 10 μM, stage at treatment 15 hpf, time treated 24 h
[6] = 10 μM, stage at treatment 24 hpf, time treated 6 h

Cc1cc(C)c(/C=C2\C(=O)Nc3ccccc32)[nH]1 [SU5416]
Plasma level [1]: 5 µM | VEGF-induced vascular endothelial cell proliferation [2]: inhibit VEGF-induced vascular endothelial cell proliferation in vitro | Metastases, microvessel formation and apoptosis (mouse xenograft models): inhibit the formation of metastases and microvessel formation and increase apoptosis of both tumor cells and tumor endothelial cells | Percent full effect ([3]; 5 μM, stage at treatment 6 hpf, time treated 24 h): 100% | Percent full effect ([3]; 5 μM, stage at treatment 15 hpf, time treated 24 h): 77% | Percent full effect ([3]; 5 μM, stage at treatment 24 hpf, time treated 6 h): 60% | Disruption of pre-existing intersegmental vessels ([3]; 10 μM for six hours beginning at 24 hpf, embryo at 30 hpf): A single intersegmental vessel (indicated by arrow) remains | Intersegmental vessel formation ([3]; 10 μM, embryo at 30 hpf): No intersegmental vessels are observed; also recorded: completely blocked intersegmental vessel formation | Percent full effect [3, 4]: 100% | Percent full effect ([3]; 10 μM, stage at treatment 15 hpf, time treated 6 h): 100% | Percent full effect [3, 5]: 100% | Percent full effect [3, 6]: 100% | Phenotypic response [3]: Dorsal aorta, caudal | Recovery time of treated embryos ([3]; comparison SU5416 versus SU6668): required a longer recovery time than those treated with SU6668 | Distribution in treated embryos ([3]; difficult to remove even after many hours of soaking in fresh water): highly concentrated in the yolk of treated embryos | Concentrations of the compounds required to see these effects (complete block of intersegmental vessel formation) [3]: 10 µM | Blood vessels in the head that form by angiogenesis [3]: blood vessels in the head that form by angiogenesis were not observed | Effect on pre-existing blood vessels [3]: disrupted pre- existing blood vessels | Migration pattern of VEGFR2 expressing cells toward the midline [3]: No difference was observed in the migration pattern of VEGFR2 expressing cells

Cc1[nH]c(/C=C2\C(=O)Nc3ccccc32)c(C)c1CCC(=O)O [SU6668]
VEGF-induced vascular endothelial cell proliferation [2]: inhibit VEGF-induced vascular endothelial cell proliferation in vitro | Metastases, microvessel formation and apoptosis (mouse xenograft models): inhibit the formation of metastases and microvessel formation and increase apoptosis of both tumor cells and tumor endothelial cells | Percent full effect [3, 4]: 100% | Percent full effect [3, 5]: 100% | Percent full effect [3, 6]: 87% | Intersegmental vessel formation ([3]; 15 μM, embryo at 30 hpf): No intersegmental vessels are observed; also recorded: completely blocked intersegmental vessel formation | Percent full effect ([3]; 15 μM, stage at treatment 6 hpf, time treated 24 h): 100% | Percent full effect ([3]; 15 μM, stage at treatment 15 hpf, time treated 6 h): 100% | Percent full effect ([3]; 15 μM, stage at treatment 15 hpf, time treated 24 h): 100% | Percent full effect ([3]; 15 μM, stage at treatment 24 hpf, time treated 6 h): 100% | Phenotypic response [3]: Dorsal aorta, caudal | Intersegmental vessels after recovery ([3]; larva at 5 dpf, treated overnight with 15 μM at 2 dpf, recovered 3 days in fresh water, some vessels migrating abnormally): Intersegmental vessels are reforming | Concentrations of the compounds required to see these effects (complete block of intersegmental vessel formation) [3]: 15 µM | Blood vessels in the head that form by angiogenesis [3]: blood vessels in the head that form by angiogenesis were not observed | Effect on pre-existing blood vessels [3]: disrupted pre- existing blood vessels | Migration pattern of VEGFR2 expressing cells toward the midline [3]: No difference was observed in the migration pattern of VEGFR2 expressing cells

Clc1ccc(Nc2nnc(Cc3ccncc3)c3ccccc23)cc1 [PTK787/ZK222584]
Formation of zebrafish blood vessels (zebrafish blood vessels): affect the formation of zebrafish blood vessels
